The values that follow come from patent US20110182973A1, “POLYMERASE INHIBITORS AND THE USE THEREOF FOR THE TREATMENT OF TUMORS” (FREIE UNIVERSITAET BERLIN, priority 2007, published 2011).

The nature of data set [1]: MTT test (viability) on primary keratinocytes (NHK). The note with it: human, primary keratinocytes (NHK); MTT test, NHK, 10^−4 M; read-out: Max. inhibition (%) (maximum decrease in viability). Format: cell-based. For orientation: Tetrazolium assays rely on reduction of a dye to a coloured formazan, in cell work by metabolically active cells.
In data set [2] the test system is primary keratinocytes. Described as above. Format: cell-based. The conditions noted are these: for inhibition at 100 µM / IC50: Keratinocyte; for inhibition at 100 µM: read-out: max. inhibition; for IC50: 48 h stimulation, read-out: −lg IC50 [M] ± SEM (converted).
For data set [3], the system named is SCC-25 cells. As to the kind of experiment: MTT test (viability) on SCC-25 tumor cells. Format: cell-based. The note with it: for inhibition at 100 µM / IC50 / cytotoxicity at 100 µM: Homo sapiens; for inhibition at 100 µM: read-out: max. inhibition; for IC50: read-out: −lg IC50 [M] ± SEM (converted); for cytotoxicity at 100 µM: read-out: Max. inhibition (%) (maximum decrease in viability).

Data set [4] can be described thus: MTT test (viability) on HaCaT keratinocyte cell line. The data set is classed as cell-based. The conditions noted are these: human, 10^−4 M, read-out: Max. inhibition (%) (maximum decrease in viability).
Data set [5] is described as follows: logP values. Format: physicochemical.
The nature of data set [6]: MTT test (viability) on dermal fibroblasts. Format: cell-based. The note with it: Fibrob., 10^−4 M, read-out: Max. inhibition (%) (maximum decrease in viability).
Data set [7] in a line: MTT test (viability) on colon carcinoma line HT-29. Format: cell-based. The conditions noted are these: Hat 29, 10^−4 M.
Data set [8] relates to MCF-7. Nature of the data set: MTT test (viability) on breast cancer cell line MCF-7. The data set is classed as cell-based. The note with it: Homo sapiens, MCF7, MCF-7, 10^−4 M, read-out: Max. inhibition (%) (maximum decrease in viability).
Setting [9] is: MTT test 48 h, primary keratinocytes, inhibitionmax = 100 − E, E = activity at 10^−4 M in %.
[10] abbreviates: MTT test 48 h, SCC-25 cells, inhibitionmax = 100 − E, E = activity at 10^−4 M in %.
The mark [11] stands for this setting: MTT test, 48 h stimulation, SCC-25 cells.
Setting [12] is: MTT test, primary keratinocytes.

Entries after “also recorded” stand apart in the source; their conditions may differ.

The term inhibition denotes how much of the control response was suppressed. Usually IC50 stands for the concentration that inhibits the measured activity by half. By logP is commonly meant the decadic logarithm of the partition coefficient of the neutral form, usually between octanol and water. `Cc1cn([C@H]2CC(=O)[C@@H](CO)O2)c(=O)[nH]c1=O` [HM-1, 3′-Deoxy-3′-oxothymidine]: the cytotoxicity was 23% in data set [1] and 16% in data set [4]. Moreover, the inhibition at 100 µM in data set [2] (setting [9]) turned out to be 24%; in data set [3] (setting [10]) it was 47%. For the same molecule, the 50% inhibitory concentration (IC50) in data set [3] (setting [11]) was 4.47e-05 M. Also, the cytotoxicity at 100 µM in data set [3] (MTT test, SCC-25, 10^−4 M) was found to be 47%. Also, the “cytotoxic / antiproliferative effect on tumor cells (SCC-25), in words” value in data set [3] (SCC-25 cells, FIG. 1, FIG. 2, Table 1) was “strong cytotoxic effect; also recorded: stronger than that of the two comparative substances 5-fluorouracil and aphidicolin”. In data set [3] (SCC-25 vs primary keratinocytes (and HaCaT)), the “selectivity: effect on SCC-25 tumor cells compared with keratinocytes, in words” value is “stronger than that in primary keratinocytes”. The log partition coefficient (logP) in data set [5] was -1.13.
For the molecule `Cc1cn([C@H]2CC(=NO)[C@@H](CO)O2)c(=O)[nH]c1=O` [HM-1 oxime, 3′-deoxy-3′-hydroxyliminothymidine], the cytotoxicity was found to be 3% in data set [1] and 20% in data set [4]. Besides, the results for the inhibition at 100 µM in data set [2] (setting [9]) and in data set [3] (setting [10]) were 7% and 36%, respectively. Besides, the IC50 in data set [2] (setting [12]) is 3.09e-08 M; in data set [3] (setting [11]), 3.72e-08 M. In data set [3] (MTT test, SCC-25, 10^−4 M), the cytotoxicity at 100 µM is 30%.
For `O=c1[nH]cc(F)c(=O)[nH]1` [Substance 5-FU, 5-fluorouracil], the cytotoxicity in data set [1] stood at 41%; in data set [4] it was 80%; in data set [6] it was 88%. In addition, the figures for the inhibition at 100 µM in data set [2] (setting [9]) and in data set [3] (setting [10]) were 44% and 42%, respectively. Moreover, the results for the half-inhibitory concentration (IC50) in data set [2] (setting [12]) and in data set [3] (setting [11]) were 1.05e-05 M and 1.05e-06 M, respectively. The cytotoxicity at 100 µM stood at 42% in data set [3] (MTT test, SCC-25, 10^−4 M) and 71% in data set [8]. Also, the “Max. inhibition (%) (maximum decrease in viability)” value in data set [7] was 66%.
`C[C@@]1(CO)[C@H](O)CC[C@@]2(C)[C@H]1CC[C@H]1C[C@@H]3C[C@@]12CC[C@]3(O)CO` [Aphidicolin]: the cytotoxicity amounted to 44% in data set [1], 86% in data set [4] and 54% in data set [6]. Further, the values for the inhibition at 100 µM in data set [2] (setting [9]) and in data set [3] (setting [10]) were 46% and 66%, respectively. For the same molecule, the IC50 in data set [2] (setting [12]) was 5.62e-09 M; in data set [3] (setting [11]), 5.13e-07 M. Further, the cytotoxicity at 100 µM in data set [3] (MTT test, SCC-25, 10^−4 M) stood at 62%; in data set [8], 61%. Besides, in data set [7], the “Max. inhibition (%) (maximum decrease in viability)” value is 70%.
Molecule `C[C@]12C=CC(=O)C=C1CC[C@@H]1[C@@H]2[C@@H](O)C[C@@]2(C)[C@H]1CC[C@]2(O)C(=O)CO` [Prednisolone] displayed a lipophilicity (logP) in data set [5] of 1.69.
Broadly, the pIC50 is −log10 of the IC50, conventionally taken in molar units. `O=C(O)P(=O)(O)O` [Foscamet]: the max. inhibition result in data set [2] (setting [9]) is on record as “n.d. (−13%)”; in data set [3] (setting [10]), 9%. Moreover, the “Max. inhibition (%) (maximum decrease in viability)” value in data set [2] (MTT test, NHK, 10^−4 M) stood at 0%; in data set [3] (MTT test, SCC-25, 10^−4 M), 9%. Also, the pIC50 in data set [3] (setting [11]) was 5.87 ± 0.24.
In the case of `CCOC(=O)O[C@]1(C(=O)COC(=O)CC)CC[C@H]2[C@@H]3CCC4=CC(=O)C=C[C@]4(C)[C@H]3[C@@H](O)C[C@@]21C` [Prednicarbate], the lipophilicity (logP) in data set [5] came to 3.82.
